A short description of series [1]: Competitive inhibition of Listeria monocytogenes C-terminal His6-tagged NADK1 expressed in Escherichia coli BL21(DE3) assessed as reduction in NADP production using varying levels of NAD as substrate by glucose-6-phosphate dehydrogenase coupled enzyme based spectrophotometric method.
In series [2] the target is T1, NAD kinase (Homo sapiens, UniProt O95544).
T1 sequence (O95544 whole entry): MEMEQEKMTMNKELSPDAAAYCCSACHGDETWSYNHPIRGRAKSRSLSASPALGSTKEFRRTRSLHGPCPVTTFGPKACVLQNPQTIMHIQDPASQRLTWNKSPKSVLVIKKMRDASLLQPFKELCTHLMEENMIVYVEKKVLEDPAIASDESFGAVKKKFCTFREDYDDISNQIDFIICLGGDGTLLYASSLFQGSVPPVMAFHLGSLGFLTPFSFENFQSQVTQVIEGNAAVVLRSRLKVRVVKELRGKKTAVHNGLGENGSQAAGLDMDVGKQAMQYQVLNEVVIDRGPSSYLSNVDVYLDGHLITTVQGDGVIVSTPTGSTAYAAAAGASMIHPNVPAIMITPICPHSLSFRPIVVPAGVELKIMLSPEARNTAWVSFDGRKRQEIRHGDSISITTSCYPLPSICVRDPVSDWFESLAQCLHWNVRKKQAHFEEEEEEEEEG
Nature of the series: Inhibition of human NADK expressed in Escherichia coli BL21(DE3) assessed as reduction in NADP production using NAD as substrate by glucose-6-phosphate dehydrogenase coupled enzyme based spectrophotometric method.

The target in series [3] is T2, NAD kinase (Staphylococcus aureus (strain COL), UniProt Q5HH78).
T2 sequence (Q5HH78 whole entry): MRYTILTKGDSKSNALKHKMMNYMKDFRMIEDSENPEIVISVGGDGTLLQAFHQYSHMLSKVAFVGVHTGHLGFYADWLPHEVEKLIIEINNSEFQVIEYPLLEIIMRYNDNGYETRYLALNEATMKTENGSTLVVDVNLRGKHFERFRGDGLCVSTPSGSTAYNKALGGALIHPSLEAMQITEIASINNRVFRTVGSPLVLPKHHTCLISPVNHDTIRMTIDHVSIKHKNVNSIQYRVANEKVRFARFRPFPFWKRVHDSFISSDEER
Nature of the series: Inhibition of Staphylococcus aureus COL NADK expressed in Escherichia coli BL21(DE3) assessed as reduction in NADP production using NAD as substrate by glucose-6-phosphate dehydrogenase coupled enzyme based spectrophotometric method. More on the design: species or system Staphylococcus aureus subsp. aureus COL.

Series [4] has as its system Bacillus subtilis. Nature of the series: Inhibition of Bacillus subtilis NADK1 expressed in Escherichia coli BL21(DE3) assessed as reduction in NADP production at 300 uM using NAD as substrate by glucose-6-phosphate dehydrogenase coupled enzyme based spectrophotometric method relative to control.
Series [5] is described as follows: Inhibition of Listeria monocytogenes C-terminal His6-tagged NADK1 P132S mutant expressed in Escherichia coli BL21(DE3) assessed as reduction in NADP production using varying levels of NAD as substrate by glucose-6-phosphate dehydrogenase coupled enzyme based spectrophotometric method.
Series [6] is described as follows: Inhibition of Listeria monocytogenes C-terminal His6-tagged NADK1 harboring Staphylococcus aureus COL NADK segment 1 expressed in Escherichia coli BL21(DE3) assessed as reduction in NADP production using NAD as substrate by glucose-6-phosphate dehydrogenase coupled enzyme based spectrophotometric method.
A short description of series [7]: Inhibition of Staphylococcus aureus COL NADK S132P mutant expressed in Escherichia coli BL21(DE3) assessed as reduction in NADP production using NAD as substrate by glucose-6-phosphate dehydrogenase coupled enzyme based spectrophotometric method. More on the design: species or system Staphylococcus aureus subsp. aureus COL.
The nature of series [8]: Inhibition of Bacillus subtilis NADK1 S132P mutant expressed in Escherichia coli BL21(DE3) assessed as reduction in NADP production using NAD as substrate by glucose-6-phosphate dehydrogenase coupled enzyme based spectrophotometric method.
Series [9] in a line: Inhibition of Bacillus subtilis NADK1 harboring Listeria monocytogenes NADK1 segment 1 expressed in Escherichia coli BL21(DE3) assessed as reduction in NADP production using NAD as substrate by glucose-6-phosphate dehydrogenase coupled enzyme based spectrophotometric method.
The nature of series [10]: Inhibition of Bacillus subtilis NADK1 harboring Listeria monocytogenes NADK1 segment 2 expressed in Escherichia coli BL21(DE3) assessed as reduction in NADP production using NAD as substrate by glucose-6-phosphate dehydrogenase coupled enzyme based spectrophotometric method.
Series [11] is described as follows: Inhibition of human NADK harboring Listeria monocytogenes NADK1 segment 1 expressed in Escherichia coli BL21(DE3) assessed as reduction in NADP production using NAD as substrate by glucose-6-phosphate dehydrogenase coupled enzyme based spectrophotometric method.
Series [12] can be described thus: Cytotoxicity against human MRC5 cells up to 1 x 10^-4M. Format: toxicity, cell-based.
The nature of series [13]: Ratio of Ki for human NADK harboring Listeria monocytogenes NADK1 segment 1 expressed in Escherichia coli BL21(DE3) to Ki for human NADK expressed in Escherichia coli BL21(DE3).

What is called Ki is a dissociation constant, usually derived from enzyme kinetics or from competition with a known ligand. Usually IC50 stands for the concentration needed to halve the response being measured. Broadly, the inhibition is the percentage by which the read-out fell short of the control.

In the case of `[N-]=[N+]=NC[C@H]1O[C@@H](n2c(SCC(=O)NCCc3cccc(Br)c3)nc3c(N)ncnc32)[C@H](O)[C@@H]1O`, the Ki stood at 1 µM in series [1]; 330 µM in series [2]; 10 µM in [5]; 2.5 µM in [6]; 170 µM in series [7]; 100 µM in series [8]. Also, the Ki was 55 µM in series [9], 30 µM in [10] and 75 µM in series [11]. Besides, the half-inhibitory concentration (IC50) in series [3] is above 400 µM. Besides, the inhibition in [4] was 15%. For the same compound, the Activity result in series [12] is recorded as “Non-Toxic”.
For the compound `[N-]=[N+]=NC[C@H]1O[C@@H](n2c(SCC(=O)NCCc3ccccc3)nc3c(N)ncnc32)[C@H](O)[C@@H]1O`, the figures for the inhibition constant Ki in series [1] and in [2] were 5 µM and 350 µM, respectively. In addition, the IC50 in series [3] was above 400 µM. For the same compound, in series [13], the Ratio Ki came out at 3. Further, the Activity result in series [12] was “Non-Toxic”.

The values are drawn from ChEMBL document CHEMBL3875180, “8-Thioalkyl-adenosine derivatives inhibit Listeria monocytogenes NAD kinase through a novel binding mode” (Eur J Med Chem, 2016).
